The test system of the assay is CD2F1 mice, L1210 leukemia sc, survival T/C. Put plainly: NCI In Vivo Anticancer Drug Screen. Data for tumor model L1210 Leukemia (subcutaneous) in CD2F1 (CDF1) mice. The following applies: endpoint: median survival time, higher = longer survival. In a few lines: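 Mice with transplanted tumor dosed; survival/tumor size read; T/C vs vehicle controls.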

Where “and” joins values, the source holds several entries; their conditions need not be identical. Equal entries are not always repeated. Inconclusive results and toxic doses are left out.

We go through 8 compounds from PubChem BioAssay AID258 (DTP/NCI, 2004).

`NCCCNCCCCNC(=O)C(O)NC(=O)CC(O)CCCCN=C(N)N` (stereo not given): the T/C was 156 % of control (dose: 3.0 mg/kg/injection, schedule: Q01DX009 (ip), vehicle: saline); 168 % of control (dose: 6.0 mg/kg/injection, schedule: Q01DX009 (ip), vehicle: saline); 163 % of control (dose: 6.25 mg/kg/injection, schedule: Q01DX009 (ip), vehicle: saline); 196 % of control (dose: 12.0 mg/kg/injection, schedule: Q01DX009 (ip), vehicle: saline); 184 % of control (dose: 12.5 mg/kg/injection, schedule: Q01DX009 (ip), vehicle: saline); 208 % of control and 210 % of control (dose: 25.0 mg/kg/injection, schedule: Q01DX009 (ip), vehicle: saline). The T/C runs as follows: (dose: 50.0 mg/kg/injection, schedule: Q01DX009 (ip), vehicle: saline) 198 % of control and 216 % of control; (dose: 100.0 mg/kg/injection, schedule: Q01DX009 (ip), vehicle: saline) 220 % of control.

Take `NCCCN=c1ccc2c3c1c(O)c1c(O)ccc(=O)c1c3[nH]n2CCNCCO`: the T/C was 118 % of control (dose: 0.8 mg/kg/injection, schedule: Q03HX024 (ip), vehicle: saline); 161 % of control (dose: 2.2 mg/kg/injection, schedule: Q03HX024 (ip), vehicle: saline); 124 % of control (dose: 2.34 mg/kg/injection, schedule: Q03HX008 (ip), vehicle: saline); 114 % of control (dose: 3.46 mg/kg/injection, schedule: Q01DX009 (ip), vehicle: water); 212 % of control (dose: 3.6 mg/kg/injection, schedule: Q03HX024 (ip), vehicle: saline); 121 % of control (dose: 3.7 mg/kg/injection, schedule: Q01DX005 (ip), vehicle: saline). The T/C reads like this: (dose: 3.7 mg/kg/injection, schedule: Q04DX003 (ip), vehicle: saline) 115 % of control; (dose: 5.7 mg/kg/injection, schedule: Q01DX009 (ip), vehicle: water) 121 % of control; (dose: 6.2 mg/kg/injection, schedule: Q04DX003 (ip), vehicle: saline) 110 % of control; (dose: 6.4 mg/kg/injection, schedule: Q03HX008 (ip), vehicle: saline) 175 % of control; (dose: 9.6 mg/kg/injection, schedule: Q01DX009 (ip), vehicle: saline) 207 % of control; (dose: 10.4 mg/kg/injection, schedule: Q01DX005 (ip), vehicle: saline) 182 % of control. For the same compound, the T/C (dose: 10.4 mg/kg/injection, schedule: Q03HX008 (ip), vehicle: saline) was 86 % of control; the T/C (dose: 11.2 mg/kg/injection, schedule: Q01DX001 (ip), vehicle: saline) is 120 % of control; the T/C (dose: 16.0 mg/kg/injection, schedule: Q01DX009 (ip), vehicle: saline) was 121 % of control; the T/C (dose: 16.0 mg/kg/injection, schedule: Q01DX009 (ip), vehicle: water) was 208 % of control; the T/C (dose: 17.3 mg/kg/injection, schedule: Q01DX005 (ip), vehicle: saline) is 215 % of control; the T/C (dose: 17.3 mg/kg/injection, schedule: Q04DX003 (ip), vehicle: saline) was 153 % of control. The T/C is 119 % of control (dose: 18.7 mg/kg/injection, schedule: Q01DX001 (ip), vehicle: saline); 95 % of control (dose: 26.7 mg/kg/injection, schedule: Q01DX009 (ip), vehicle: saline); 96 % of control (dose: 26.7 mg/kg/injection, schedule: Q01DX009 (ip), vehicle: water); 107 % of control (dose: 28.8 mg/kg/injection, schedule: Q01DX005 (ip), vehicle: saline); 182 % of control (dose: 28.8 mg/kg/injection, schedule: Q04DX003 (ip), vehicle: saline); 268 % of control (dose: 48.0 mg/kg/injection, schedule: Q04DX003 (ip), vehicle: saline). Besides, the T/C (dose: 51.3 mg/kg/injection, schedule: Q01DX001 (ip), vehicle: saline) is 153 % of control; the T/C (dose: 80.0 mg/kg/injection, schedule: Q04DX003 (ip), vehicle: saline) is 118 % of control; the T/C (dose: 86.4 mg/kg/injection, schedule: Q01DX001 (ip), vehicle: saline) was 225 % of control.

As to `Cc1cc(NCCCCCCCNc2cc(C)nc3cc(N)ccc23)c2ccc(N)cc2n1`, the T/C is 100 % of control and 104 % of control and 98 % of control (dose: 1.56 mg/kg/injection, schedule: Q01DX009 (ip), vehicle: water); 109 % of control and 110 % of control and 121 % of control (dose: 3.12 mg/kg/injection, schedule: Q01DX009 (ip), vehicle: water); 120 % of control (dose: 6.25 mg/kg/injection, schedule: Q01DX009 (ip), vehicle: water); 156 % of control and 175 % of control (dose: 12.5 mg/kg/injection, schedule: Q01DX009 (ip), vehicle: water); 120 % of control (dose: 25.0 mg/kg/injection, schedule: Q01DX009 (ip), vehicle: water).

With `S=c1nc[nH]c2nc[nH]c12.[Ag]`, the T/C reads like this: (dose: 100.0 mg/kg/injection, schedule: Q01DX Z (sc), vehicle: water) 100 % of control; (dose: 200.0 mg/kg/injection, schedule: Q01DX Z (sc), vehicle: water) 100 % of control; (dose: 400.0 mg/kg/injection, schedule: Q01DX Z (sc), vehicle: water) 100 % of control; (dose: 800.0 mg/kg/injection, schedule: Q01DX Z (sc), vehicle: water) 100 % of control; (dose: 1600.0 mg/kg/injection, schedule: Q01DX Z (sc), vehicle: water) 100 % of control.

On to `Nc1ccc(C(=O)O)cn1`, for which the T/C (dose: 14.0 mg/kg/injection, schedule: Q01DX Z (sc), vehicle: other) was 100 % of control; the T/C (dose: 23.0 mg/kg/injection, schedule: Q01DX Z (sc), vehicle: other) was 100 % of control; the T/C (dose: 37.0 mg/kg/injection, schedule: Q01DX Z (sc), vehicle: other) was 100 % of control; the T/C (dose: 65.0 mg/kg/injection, schedule: Q01DX Z (sc), vehicle: other) was 111 % of control; the T/C (dose: 108.0 mg/kg/injection, schedule: Q01DX Z (sc), vehicle: other) was 100 % of control; the T/C (dose: 180.0 mg/kg/injection, schedule: Q01DX Z (sc), vehicle: other) was 111 % of control.

For the compound `O=C1c2ccccc2C(=O)c2c(NCCNCCO)ccc(O)c21`, the T/C reads like this: (dose: 5.0 mg/kg/injection, schedule: Q01DX009 (ip), vehicle: suspension in saline) 103 % of control and 104 % of control; (dose: 10.0 mg/kg/injection, schedule: Q01DX009 (ip), vehicle: suspension in saline) 103 % of control and 106 % of control; (dose: 20.0 mg/kg/injection, schedule: Q01DX009 (ip), vehicle: suspension in saline) 104 % of control and 108 % of control; (dose: 40.0 mg/kg/injection, schedule: Q01DX009 (ip), vehicle: suspension in saline) 103 % of control and 106 % of control; (dose: 80.0 mg/kg/injection, schedule: Q01DX009 (ip), vehicle: suspension in saline) 114 % of control and 116 % of control.

For `O=C(O)c1cc(=O)[nH]c(=O)[nH]1`, the T/C (dose: 300.0 mg/kg/injection, schedule: Q01DX Z (sc), vehicle: saline) is 100 % of control.

As for `CCOC(=O)C(CC(C)C)NC(=O)C(Cc1ccc(N(CCCl)CCCl)cc1)NC(C)=O` (stereo not given), the T/C runs as follows: (dose: 1.0 mg/kg/injection, schedule: Q01DX009 (sc), vehicle: Klucel (hydroxypropylcellulose) (HPC)) 102 % of control and 103 % of control; (dose: 2.0 mg/kg/injection, schedule: Q01DX009 (sc), vehicle: Klucel (hydroxypropylcellulose) (HPC)) 103 % of control and 98 % of control; (dose: 4.0 mg/kg/injection, schedule: Q01DX009 (sc), vehicle: Klucel (hydroxypropylcellulose) (HPC)) 104 % of control and 105 % of control; (dose: 8.0 mg/kg/injection, schedule: Q01DX009 (sc), vehicle: Klucel (hydroxypropylcellulose) (HPC)) 107 % of control and 98 % of control; (dose: 16.0 mg/kg/injection, schedule: Q01DX009 (sc), vehicle: Klucel (hydroxypropylcellulose) (HPC)) 103 % of control and 109 % of control; (dose: 28.5 mg/kg/injection, schedule: Q01DX009 (sc), vehicle: Klucel (hydroxypropylcellulose) (HPC)) 110 % of control. The T/C (dose: 32.0 mg/kg/injection, schedule: Q01DX009 (sc), vehicle: Klucel (hydroxypropylcellulose) (HPC)) was 100 % of control and 112 % of control; the T/C (dose: 42.7 mg/kg/injection, schedule: Q01DX009 (sc), vehicle: Klucel (hydroxypropylcellulose) (HPC)) is 121 % of control; the T/C (dose: 64.0 mg/kg/injection, schedule: Q01DX009 (sc), vehicle: Klucel (hydroxypropylcellulose) (HPC)) was 118 % of control and 124 % of control; the T/C (dose: 113.8 mg/kg/injection, schedule: Q01DX009 (sc), vehicle: Klucel (hydroxypropylcellulose) (HPC)) was 113 % of control; the T/C (dose: 128.0 mg/kg/injection, schedule: Q01DX009 (sc), vehicle: Klucel (hydroxypropylcellulose) (HPC)) was 113 % of control and 122 % of control; the T/C (dose: 170.7 mg/kg/injection, schedule: Q01DX009 (sc), vehicle: Klucel (hydroxypropylcellulose) (HPC)) was 120 % of control. Besides, the T/C (dose: 384.0 mg/kg/injection, schedule: Q01DX009 (sc), vehicle: Klucel (hydroxypropylcellulose) (HPC)) is 158 % of control.
